The assay concerns CD2F1 mice, P388/DHAQ leukemia ip, median survival T/C. Description: NCI In Vivo Anticancer Drug Screen. Data for tumor model P388 Leukemia resistant to Dihydroxy Anthracenedione; NSC 299195 (intraperitoneal) in CD2F1 (CDF1) mice. The note with it: endpoint: median survival time, higher = longer survival. The procedure: The antitumor activity of compounds was measured in mice bearing transplantable tumors. Survival or tumor size were measured and the results are expressed as the measurement made in the treated group (T) divided by the measurement made in the vehicle treated control group (C). The tumor model used in this assay is P388 Leukemia resistant to Dihydroxy Anthracenedione; NSC 299195 (intraperitoneal) in CD2F1 (CDF1) mice

Setting [1] is: dose: 4.32 mg/kg/injection, schedule: Q04DX003 (ip), vehicle: saline.
Where [2] appears, read: dose: 12.0 mg/kg/injection, schedule: Q04DX003 (ip), vehicle: saline.

The structures appear in SMILES notation. Several values for one entry are separate records, joined by “and”; a condition that tells them apart may be missing. Equal values may be shown once. Inconclusive results and toxic doses are left out.

Take `COc1c(O)c2c(c3cc(C(=O)N4CCc5c4c(O)c(OC)c4[nH]c(C(=O)N6CC7CC78C6=CC(=O)c6[nH]cc(C)c68)cc54)[nH]c13)CCN2C(N)=O` (configuration not stated): the T/C (dose: 0.05 mg/kg/injection, schedule: Q04DX003 (ip), vehicle: DMSO) is 122 % of control; the T/C (dose: 0.09 mg/kg/injection, schedule: Q04DX003 (ip), vehicle: DMSO) was 119 % of control; the T/C (dose: 13.0 micrograms/kg/injection, schedule: Q01DX009 (ip), vehicle: DMSO) was 100 % of control; the T/C (dose: 21.6 micrograms/kg/injection, schedule: Q01DX009 (ip), vehicle: DMSO) is 96 % of control; the T/C (dose: 36.0 micrograms/kg/injection, schedule: Q01DX009 (ip), vehicle: DMSO) is 94 % of control; the T/C (dose: 38.9 micrograms/kg/injection, schedule: Q04DX003 (ip), vehicle: DMSO) was 114 % of control. The T/C is, setting by setting: (dose: 60.0 micrograms/kg/injection, schedule: Q01DX009 (ip), vehicle: DMSO) 93 % of control; (dose: 64.8 micrograms/kg/injection, schedule: Q04DX003 (ip), vehicle: DMSO) 114 % of control; (dose: 100.0 micrograms/kg/injection, schedule: Q01DX009 (ip), vehicle: DMSO) 94 % of control; (dose: 108.0 micrograms/kg/injection, schedule: Q04DX003 (ip), vehicle: DMSO) 121 % of control; (dose: 180.0 micrograms/kg/injection, schedule: Q04DX003 (ip), vehicle: DMSO) 105 % of control; (dose: 300.0 micrograms/kg/injection, schedule: Q04DX003 (ip), vehicle: DMSO) 102 % of control. For the same compound, the T/C (dose: 300.0 micrograms/kg/injection, schedule: Q04DX003 (ip), vehicle: saline) is 100 % of control.

In the case of `C(=N/NC1=NCCN1)/c1c2ccccc2c(/C=N\NC2=NCCN2)c2ccccc12`, the T/C is 103 % of control (dose: 5.18 mg/kg/injection, schedule: Q04DX002 (ip), vehicle: saline); 108 % of control (dose: 8.64 mg/kg/injection, schedule: Q04DX002 (ip), vehicle: saline); 111 % of control (dose: 13.0 mg/kg/injection, schedule: Q04DX002 (ip), vehicle: water); 105 % of control (dose: 14.4 mg/kg/injection, schedule: Q04DX002 (ip), vehicle: saline); 118 % of control (dose: 21.6 mg/kg/injection, schedule: Q04DX002 (ip), vehicle: water); 111 % of control (dose: 36.0 mg/kg/injection, schedule: Q04DX002 (ip), vehicle: water). Besides, the T/C reads like this: (dose: 40.0 mg/kg/injection, schedule: Q04DX002 (ip), vehicle: saline) 98 % of control; (dose: 60.0 mg/kg/injection, schedule: Q04DX002 (ip), vehicle: water) 109 % of control.

In the case of `CO[C@H](C(=O)[C@@H](O)[C@@H](C)O)[C@@H]1Cc2cc3cc(OC4CC(OC5CC(O)C(O)C(C)O5)C(O)C(C)O4)c(C)c(O)c3c(O)c2C(=O)[C@H]1OC1CC(OC2CC(OC3CC(C)(O)C(O)C(C)O3)C(O)C(C)O2)C(O)C(C)O1` (some centres not stated), the T/C reads like this: (dose: 0.22 mg/kg/injection, schedule: Q01DX005 (ip), vehicle: clinical formulation) 112 % of control; (dose: 0.36 mg/kg/injection, schedule: Q01DX005 (ip), vehicle: clinical formulation) 110 % of control; (dose: 0.6 mg/kg/injection, schedule: Q01DX005 (ip), vehicle: clinical formulation) 120 % of control; (dose: 1.0 mg/kg/injection, schedule: Q01DX005 (ip), vehicle: clinical formulation) 123 % of control.

Regarding `CC[C@]1(O)C[C@H]2CN(CCc3c([nH]c4ccccc34)[C@@](C(=O)OC)(c3cc4c(cc3OC)N(C=O)[C@H]3[C@@](O)(C(=O)OC)[C@H](OC(C)=O)[C@]5(CC)C=CCN6CC[C@]43[C@@H]65)C2)C1`, the T/C is, setting by setting: (dose: 0.43 mg/kg/injection, schedule: Q04DX003 (ip), vehicle: saline) 160 % of control; (dose: 0.72 mg/kg/injection, schedule: Q04DX003 (ip), vehicle: saline) 150 % of control and 158 % of control and 169 % of control; (dose: 1.2 mg/kg/injection, schedule: Q04DX003 (ip), vehicle: saline) 161 % of control and 168 % of control and 172 % of control; (dose: 2.0 mg/kg/injection, schedule: Q04DX003 (ip), vehicle: saline) 168 % of control and 169 % of control and 195 % of control.

Turning to `COC(=O)C[C@](O)(CCCC(C)(C)O)C(=O)O[C@@H]1C(OC)=C[C@]23CCCN2CCc2cc4c(cc2[C@H]13)OCO4`, the T/C by setting is: (dose: 3.0 mg/kg/injection, schedule: Q04DX003 (ip), vehicle: saline) 116 % of control; (dose: 3.33 mg/kg/injection, schedule: Q04DX003 (ip), vehicle: saline) 154 % of control.

Turning to `CC[C@@]1(O)C[C@H](OC2CC(N(C)C)C(OC3CC(O)C(OC4CCC(=O)C(C)O4)C(C)O3)C(C)O2)c2c(cc3c(c2O)C(=O)c2c(O)cccc2C3=O)[C@H]1C(=O)OC` (some centres not stated), the T/C under setting [1] was 120 % of control and the T/C under setting [2] is 196 % of control.

For the compound `CC[C@](O)(C(=O)O)c1cc2n(c(=O)c1CO)Cc1cc3ccccc3nc1-2`, the T/C runs as follows: (dose: 6.48 mg/kg/injection, schedule: Q04DX003 (ip), vehicle: saline) 102 % of control and 117 % of control and 121 % of control; (dose: 7.78 mg/kg/injection, schedule: Q04DX003 (ip), vehicle: saline) 121 % of control; (dose: 10.8 mg/kg/injection, schedule: Q04DX003 (ip), vehicle: saline) 115 % of control and 120 % of control; (dose: 18.0 mg/kg/injection, schedule: Q04DX003 (ip), vehicle: saline) 115 % of control; (dose: 30.0 mg/kg/injection, schedule: Q04DX003 (ip), vehicle: saline) 155 % of control; (dose: 36.0 mg/kg/injection, schedule: Q04DX003 (ip), vehicle: saline) 164 % of control. Further, the T/C (dose: 50.0 mg/kg/injection, schedule: Q04DX003 (ip), vehicle: saline) was 180 % of control.

As to `CC[C@H]1CN2CCc3cc(OC)c(OC)cc3[C@@H]2C[C@@H]1C[C@H]1NCCc2cc(OC)c(OC)cc21`, the T/C reads like this: under setting [1], 111 % of control; (dose: 5.18 mg/kg/injection, schedule: Q04DX003 (ip), vehicle: saline) 111 % of control; (dose: 7.2 mg/kg/injection, schedule: Q04DX003 (ip), vehicle: saline) 121 % of control; (dose: 8.64 mg/kg/injection, schedule: Q04DX003 (ip), vehicle: saline) 121 % of control; under setting [2], 121 % of control; (dose: 14.4 mg/kg/injection, schedule: Q04DX003 (ip), vehicle: saline) 156 % of control. In addition, the T/C (dose: 24.0 mg/kg/injection, schedule: Q04DX003 (ip), vehicle: saline) is 175 % of control and 228 % of control.

Source of the values: PubChem BioAssay AID326 (DTP/NCI, 2004).
